pIC50, pKd: −log10 of the molar value. Where a SMILES comes first, the peptide text is derived from it. Bridges are numbered along the chain shown (N, C = ends). [ ]: non-standard residue; d: D form. The star is where a group is joined. hPhe(3-Cl-4-CF3) = N[C@@H](CCc1ccc(C(F)(F)F)c(Cl)c1)C(=O)O; NPrPhe(4-CF3) = CCCN[C@@H](Cc1ccc(C(F)(F)F)cc1)C(=O)O; 3Oxa8azabicyclo(3.2.1)octane = C1CC2COCC1N2*; NMeGly(cPent) = CN[C@H](C(=O)O)C1CCCC1; NMeD = CN[C@@H](CC(=O)O)C(=O)O; NMeL = CN[C@@H](CC(C)C)C(=O)O; NMeA = CN[C@@H](C)C(=O)O; Ac5c = NC1(C(=O)O)CCCC1; Aze = O=C(O)[C@@H]1CCN1; Sar = CNCC(=O)O
Columns and labels:
[1] = target: HRAS wild-type protein (Homo sapiens, UniProt P01112); test: Binding to HRAS by surface plasmon resonance (SPR), KD and KD ratio to KRAS
How it was run: (§1)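 Single-cycle kinetics on GDP-loaded biotin-Avi RAS captured to ~100–300 RU; 75 s ascending injections, 100 µL/min, 30°C. HBS pH 7.4 + 10 mM MgCl2/10 µM GDP/4% DMSO. 1:1 fit, KD.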

[2] = target: GDP-bound NRAS wild-type protein (Homo sapiens, UniProt P01111); test: Binding to NRAS by surface plasmon resonance (SPR), KD and KD ratio to KRAS
How it was run: as §1

[3] = system: human lung cancer strain NCI-H441; type: cell-based
How it was run: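 Proliferation was scored by […] measured after the reagent was added to cultures kept at 37°C in 5% carbon dioxide.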

[4] = target: GDP-bound KRAS wild-type protein (Homo sapiens, UniProt P01116); test: Binding to KRAS by surface plasmon resonance (SPR), dissociation constant KD
Procedure: Surface plasmon resonance was used to analyze the binding affinity of compounds for KRAS, NRAS, and HRAS. The apparatus used was Biacore 8K, 8K+, or T200 (GE Healthcare), and the running buffer used was HBS (10 mM HEPES-NaOH, 150 mM NaCl, pH 7.4) containing 1 mM DTT, 10 mM MgCl2, 0.01% Tween 20, 10 µM GDP, and 4% DMSO.
Biotinylated Avi-tag fusion KRAS, NRAS, and HRAS proteins were expressed in E. coli BL21 (DE3) strains, and after cells were homogenized, they were purified using Streptavidin Mutein Matrix and Superdex 75. After purification, GDP-loaded KRAS, NRAS, and HRAS proteins were immobilized on the surface of Sensor Chip CAP (Cytiva) coated with Biotin CAPture Reagent in an immobilization amount of about 100 to 300 RU. Binding of each compound was evaluated by the Single Cycle Kinetics method, and a running buffer or a compound solution was added to the RAS protein non-immobilized surface and the immobilized surface to obtain a binding response. The flow rate was set to 100 µL/min, and in the compound-adding cycle, compound solutions having different concentrations were intermittently added for 75 seconds each, starting from a low concentration. […] In the blank cycle, a running buffer was intermittently added and not the compound solution. The Biotin CAPture Reagent and RAS proteins were immobilized for each cycle, and at the end of each cycle, the sensor chip was regenerated by the regeneration solution appended to the Biotin CAPture Kit (Cytiva). Measurement was carried out at 30°C.
The resulting sensorgram was subjected to curve fitting based on a 1:1 binding model on Biacore Insight Evaluation Software or T200 Evaluation Software, and thereby the dissociation constant KD of each compound with respect to KRAS, NRAS, and HRAS was determined. […] Blank indicates a compound from which the KD value with respect to NRAS or HRAS was not obtained.

[5] = ratio of KD for HRAS wild-type protein to KD for KRAS
[6] = ratio of KD for GDP-bound NRAS wild-type protein to KD for KRAS
[7] = ratio of KD value for HRAS wild-type protein to KD value for KRAS (SPR)
[8] = ratio of KD value for GDP-bound NRAS wild-type protein to KD value for KRAS (SPR)
[9] = Single Cycle Kinetics, 1:1 binding model

Sequence of GDP-bound NRAS wild-type protein (P01111 whole entry): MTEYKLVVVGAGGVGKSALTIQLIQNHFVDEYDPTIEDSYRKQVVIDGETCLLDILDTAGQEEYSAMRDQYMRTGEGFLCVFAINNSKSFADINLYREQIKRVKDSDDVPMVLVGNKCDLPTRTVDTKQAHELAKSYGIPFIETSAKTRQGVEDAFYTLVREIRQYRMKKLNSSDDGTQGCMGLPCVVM
Sequence of GDP-bound KRAS wild-type protein (P01116 1-188 isoform P01116-2): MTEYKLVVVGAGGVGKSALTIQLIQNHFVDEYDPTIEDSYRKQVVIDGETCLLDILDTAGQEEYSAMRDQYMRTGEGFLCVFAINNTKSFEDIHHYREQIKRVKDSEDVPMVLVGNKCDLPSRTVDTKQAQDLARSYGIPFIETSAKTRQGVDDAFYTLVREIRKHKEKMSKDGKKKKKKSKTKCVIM
Sequence of HRAS wild-type protein (P01112 whole entry): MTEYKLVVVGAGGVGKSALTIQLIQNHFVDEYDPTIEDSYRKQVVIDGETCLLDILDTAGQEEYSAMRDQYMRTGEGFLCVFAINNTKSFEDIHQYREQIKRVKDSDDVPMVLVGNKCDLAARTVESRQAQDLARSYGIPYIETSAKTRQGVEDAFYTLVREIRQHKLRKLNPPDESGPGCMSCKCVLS

Structure (SMILES)	pIC50 [3]	pKd ([4]; Single Cycle Kinetics)	pKd [4, 9]	pKd ([4]; 1:1 binding model)	HRAS /KRAS [1, 5]	NRAS /KRAS [2, 6]	HRAS /KRAS [1, 7]	NRAS /KRAS [2, 8]	HRAS /KRAS ([1]; ratio of the KD value with respect to HRAS wild-type protein to the KD value with respect to KRAS)	NRAS /KRAS ([2]; ratio of the KD value with respect to GDP-bound NRAS wild-type protein to the KD value with respect to KRAS)
CCO[C@@H]1C[C@H]2C(=O)NC3(CCC3)C(=O)N(C)[C@@H](C3CCCC3)C(=O)N(C)[C@H](C(=O)N(C)C)CC(=O)N(C)[C@@H](CC(C)C)C(=O)N[C@@H]([C@@H](C)CC)C(=O)N(C)CC(=O)N(C)[C@H]3C[C@@H](C)CCN(C3=O)[C@@H](Cc3ccc(C(F)(F)F)cc3)C(=O)N(C)CC(=O)N[C@@H](CCc3cc(F)c(C(F)(F)F)c(F)c3)C(=O)N2C1 [PP1018]	8.17	10.77			B (a compound having 3 or more and less than 10 is denoted as B)	C (A compound having a KD ratio of 0.1 or more and less than 3 is denoted as C)				
CCCN1C(=O)[C@@H]2CCN2C(=O)[C@H](C)N(C)C(=O)[C@H]([C@@H](C)CC)NC(=O)[C@H](CC(C)C)N(C)C(=O)C[C@@H](C(=O)N2C3CCC2COC3)N(C)C(=O)[C@H](C2CCCC2)N(C)C(=O)C2(CCCC2)NC(=O)[C@@H]2CCCN2C(=O)[C@H](CCc2ccc(C(F)(F)F)c(Cl)c2)NC(=O)CN(C)C(=O)[C@@H]1Cc1ccc(C(F)(F)F)cc1 [PP0182] ([NMeL]I[NMeA][Aze][NPrPhe(4-CF3)][Sar][hPhe(3-Cl-4-CF3)]P[Ac5c][NMeGly(cPent)][NMeD]-{3Oxa8azabicyclo(3.2.1)octane}; lactam N-11)	8.21			9.06	B (a compound having 3 or more and less than 10 is denoted as B)	C (A compound having a KD ratio of 0.1 or more and less than 3 is denoted as C)				
CCO[C@@H]1C[C@H]2C(=O)NC3(CCC3)C(=O)N(C)[C@@H](C3CCCC3)C(=O)N(C)[C@H](C(=O)N3CCOCC3)CC(=O)N(C)[C@@H](CC(C)C)C(=O)N[C@@H]([C@@H](C)CC)C(=O)N(C)CC(=O)N(C)[C@H]3CCCCCN(C3=O)[C@@H](Cc3nccs3)C(=O)N(C)CC(=O)N[C@@H](CCc3cc(F)c(C(F)(F)F)c(F)c3)C(=O)N2C1 [PP0923]	6.35	8.80			B (a compound having 3 or more and less than 10 is denoted as B)	B (a compound having 3 or more and less than 10 is denoted as B)				
CC[C@H](C)[C@@H]1NC(=O)[C@H](CC(C)C)N(C)C(=O)C[C@@H](C(=O)N2CCOCC2)N(C)C(=O)[C@H](C2CCCC2)N(C)C(=O)C2(CCCC2)NC(=O)[C@@H]2CCCN2C(=O)[C@H](CCc2ccc(C(F)(F)F)c(Cl)c2)NC(=O)CN(C)C(=O)[C@H](Cc2ccc(F)cc2)N2CCCC[C@@H](C2=O)N(C)C(=O)CN(C)C1=O [PP0530]	8.15		10.22						B (a compound having 3 or more and less than 10 is denoted as B)	C (A compound having a KD ratio of 0.1 or more and less than 3 is denoted as C)
CC[C@H](C)[C@@H]1NC(=O)[C@H](Cc2ccccc2)N(C)C(=O)C[C@@H](C(=O)N2CCOCC2)N(C)C(=O)[C@H](C2CCCC2)N(C)C(=O)C2(CCCC2)NC(=O)[C@@H]2CCCN2C(=O)[C@H](CCc2ccc(C(F)(F)F)c(Cl)c2)NC(=O)CN(C)C(=O)[C@H](Cc2ccc(F)cc2)N2CCCCC[C@@H](C2=O)N(C)C(=O)CN(C)C1=O [PP0961]	7.27	9.21			B (a compound having 3 or more and less than 10 is denoted as B)	B (a compound having 3 or more and less than 10 is denoted as B)				
CC[C@H](C)[C@@H]1NC(=O)[C@H](Cc2cccc(F)c2)N(C)C(=O)C[C@@H](C(=O)N2CCOCC2)N(C)C(=O)[C@H](C2CCCC2)N(C)C(=O)C2(CCCC2)NC(=O)[C@@H]2CCCN2C(=O)[C@H](CCc2ccc(C(F)(F)F)c(Cl)c2)NC(=O)CN(C)C(=O)[C@H](Cc2ccc(F)cc2)N2CCCCC[C@@H](C2=O)N(C)C(=O)CN(C)C1=O [PP0962]	7.08	9.19			B (a compound having 3 or more and less than 10 is denoted as B)	B (a compound having 3 or more and less than 10 is denoted as B)				
CCO[C@@H]1C[C@H]2C(=O)NC3(CCC3)C(=O)N(C)[C@@H](C3CCCC3)C(=O)N(C)[C@H](C(=O)N3CCOCC3)CC(=O)N(C)[C@@H](CC(C)C)C(=O)N[C@@H]([C@H](C)CC)C(=O)N(C)CC(=O)N(C)[C@H]3CCCCN(C3=O)[C@@H](Cc3ccc(C(F)(F)F)cc3)C(=O)N(C)CC(=O)N[C@@H](CCc3cc(F)c(C(F)(F)F)c(F)c3)C(=O)N2C1 [PP0806]	7.77	9.72			B (a compound having 3 or more and less than 10 is denoted as B)	B (a compound having 3 or more and less than 10 is denoted as B)				
CC[C@H](C)[C@@H]1NC(=O)[C@H](CC(C)C)N(C)C(=O)C[C@@H](C(=O)N2CCOCC2)N(CC)C(=O)[C@H](C2CCCC2)N(C)C(=O)C2(CCC2)NC(=O)[C@@H]2CC(F)(F)CN2C(=O)[C@H](CCc2cc(F)c(C(F)(F)F)c(F)c2)NC(=O)CN(C)C(=O)[C@H](Cc2ccc(C(F)(F)F)cc2)N2CCCCC[C@@H](C2=O)N(C)C(=O)CN(C)C1=O [PP0954]	6.36	8.12			A (a compound having 10 or more and less than 20 is denoted as A)	A (a compound having 10 or more and less than 20 is denoted as A)				

Second part, led by results:

pIC50 [3]	pKd ([4]; Single Cycle Kinetics)	pKd [4, 9]	pKd ([4]; 1:1 binding model)	Structure (SMILES)	HRAS /KRAS [1, 5]	NRAS /KRAS [2, 6]	HRAS /KRAS [1, 7]	NRAS /KRAS [2, 8]	HRAS /KRAS ([1]; ratio of the KD value with respect to HRAS wild-type protein to the KD value with respect to KRAS)	NRAS /KRAS ([2]; ratio of the KD value with respect to GDP-bound NRAS wild-type protein to the KD value with respect to KRAS)
7.90		9.70		CCCOC[C@H]1C(=O)N[C@@H]([C@@H](C)CC)C(=O)N(C)CC(=O)N(C)[C@H]2C/C=C\CCN(C2=O)[C@@H](Cc2ccc(C)cc2)C(=O)N(C)CC(=O)N[C@@H](CCc2cc(F)c(C(F)(F)F)c(F)c2)C(=O)N2C[C@H](OCC)C[C@H]2C(=O)NC2(CC(C)(C)C2)C(=O)N(C)[C@@H](C2CCCC2)C(=O)N(C)[C@H](C(=O)N(CC)CC)CC(=O)N1C [PP1578]			A (a compound having 10 or more and less than 20 is denoted as A)	A (a compound having 10 or more and less than 20 is denoted as A)		
8.08			9.37	CCC[C@H]1C(=O)N[C@@H](C2CCCCC2)C(=O)N(C)CC(=O)N(C)[C@H]2C/C=C\CCN(C2=O)[C@@H](Cc2ccc(C)cc2)C(=O)N(C)CC(=O)N[C@@H](CCc2ccc(C(F)(F)F)c(Cl)c2)C(=O)N2C[C@H](OCC)C[C@H]2C(=O)NC2(CC(C)(C)C2)C(=O)N(C)[C@@H](C2CCCC2)C(=O)N(C)[C@H](C(=O)N(C)C)CC(=O)N1C [PP2998]	AA (a compound having 20 or more is denoted as AA)	A (a compound having 10 or more and less than 20 is denoted as A)				
7.64			9.41	CCC(CC)[C@H]1C(=O)N(C)[C@H](C(=O)N(C)C)CC(=O)N(C)[C@@H](COC)C(=O)N[C@@H]([C@@H](C)CC)C(=O)N(C)CC(=O)N(C)[C@H]2C/C=C\CCN(C2=O)[C@@H](Cc2ccc(C)cc2)C(=O)N(C)CC(=O)N[C@@H](CCc2ccc(Cl)c(Cl)c2)C(=O)N2C[C@H](OC3CCC3)C[C@H]2C(=O)N(C)C2(CC(C)(C)C2)C(=O)N1C [PP2816]	A (a compound having 10 or more and less than 20 is denoted as A)	AA (a compound having 20 or more is denoted as AA)				
8.12		10.00		CC[C@H](C)[C@@H]1NC(=O)[C@H](CC2CCC2)N(C)C(=O)C[C@@H](C(=O)N(C)C)N(C)C(=O)[C@H](C2CCCC2)N(C)C(=O)C2(CCC2)N(C)C(=O)[C@@H]2C[C@@H](C)CN2C(=O)[C@H](CCc2cc(F)c(C(F)(F)F)c(F)c2)NC(=O)CN(C)C(=O)[C@H](Cc2ccc(C)cc2)N2CC/C=C\C[C@@H](C2=O)N(C)C(=O)CN(C)C1=O [PP1803]			B (a compound having 3 or more and less than 10 is denoted as B)	A (a compound having 10 or more and less than 20 is denoted as A)		
7.94			9.24	CCC[C@H]1C(=O)N[C@@H]([C@@H](C)CC)C(=O)N(C2CC2)CC(=O)N(C)[C@H]2C/C=C\CCN(C2=O)[C@@H](Cc2ccc(C)cc2)C(=O)N(C)CC(=O)N[C@@H](CCc2ccc(C(F)(F)F)c(CC)c2)C(=O)N2C[C@H](OCC)C[C@H]2C(=O)NC2(CC(C)(C)C2)C(=O)N(C)[C@@H](C2CCCC2)C(=O)N(C)[C@H](C(=O)N(C)C)CC(=O)N1C [PP2870]	A (a compound having 10 or more and less than 20 is denoted as A)	A (a compound having 10 or more and less than 20 is denoted as A)				

Source: patent publication EP4603105A1, “PHARMACEUTICAL COMPOSITION CONTAINING CYCLIC COMPOUND HAVING SELECTIVE KRAS INHIBITORY EFFECT AGAINST HRAS AND NRAS” (CHUGAI SEIYAKU KABUSHIKI KAISHA, priority 2022, dated 2024)
